The values below are quoted from earlier work in patent publication US11707464B2, “Methods of treating heavy menstrual bleeding” (AbbVie Inc., priority 2013, dated 2023).

The series concerns women with symptomatic uterine fibroids. Particulars: 185 women with HMB associated with uterine fibroids; through 6 months; cited from earlier work.

Take `CCNC(=O)[C@@H]1CCCN1C(=O)[C@H](CCCN=C(N)N)NC(=O)[C@H](CC(C)C)NC(=O)[C@@H](Cc1c[nH]c2ccccc12)NC(=O)[C@H](Cc1ccc(O)cc1)NC(=O)[C@H](CO)NC(=O)[C@H](Cc1c[nH]c2ccccc12)NC(=O)[C@H](Cc1cnc[nH]1)NC(=O)[C@@H]1CCC(=O)N1` [deslorelin]: the “efficacy (reduction in uterine bleeding and volume) when dosed with low-dose transdermal E2” value was “maintained”.
